System: T1, PtTA
T1 construct: PLP enzyme
Experiment: initial rates, chiral HPLC of L-PPT, Michaelis-Menten fit
Type: biochemical, Zestomonas thermotolerans
Settings: PPO 1-100 mM; co-substrate L-amino acid 100 mM (L-Glu presumably); 0.1 mM PLP; 50 mM phosphate pH 8.0; 55 °C

Question: `CP(=O)(O)CCC(=O)C(=O)O` [PPO, 4-(hydroxy(methyl)phosphoryl)-2-oxobutanoic acid] was tested. Which Km did it give?
Answer: Its Km is 35.9 mM.

Reference: article PMC10827958, “Identification of a novel thermostable transaminase and its application in L-phosphinothricin biosynthesis” (Applied Microbiology and Biotechnology, 2024)
